Experimental data from PubChem BioAssay (NCI).
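Cells were grown in 96-well plates and exposed to each compound for 48 hours at five concentrations; endpoints were interpolated linearly between bracketing concentrations, or set to the highest concentration if not reached. At the GI50, growth is halved. At the TGI there is no net growth.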

Legend:
Assay in all cases: NCI anticancer screen, dose series, 48 h; in the data active means GI50 below about 0.43 µM; inactive means the rest
MDA-MB-231 breast = system: MDA-MB-231 breast
TK-10 renal = system: TK-10 renal
SNB-75 CNS = system: SNB-75 CNS
SN12C renal = system: SN12C renal
RXF 393 renal = system: RXF 393 renal
OVCAR-5 ovarian = system: OVCAR-5 ovarian
NCI/ADR-RES ovarian = system: NCI/ADR-RES ovarian
UACC-62 melanoma = system: UACC-62 melanoma
SNB-19 CNS = system: SNB-19 CNS
786-0 renal = system: 786-0 renal
MDA-MB-435 = system: MDA-MB-435
NCI-H522 lung = system: NCI-H522 lung
RPMI-8226 leukemia = system: RPMI-8226 leukemia
OVCAR-3 ovarian = system: OVCAR-3 ovarian
SF-539 CNS = system: SF-539 CNS
EKVX NSCLC = system: EKVX NSCLC
A549 NSCLC = system: A549 NSCLC
MALME-3M melanoma = system: MALME-3M melanoma
OVCAR-8 ovarian = system: OVCAR-8 ovarian
IGROV1 ovarian = system: IGROV1 ovarian
PC-3 prostate = system: PC-3 prostate
SK-MEL-2 melanoma = system: SK-MEL-2 melanoma
HOP-62 NSCLC = system: HOP-62 NSCLC
T-47D breast = system: T-47D breast
SK-MEL-5 melanoma = system: SK-MEL-5 melanoma
HS 578T breast = system: HS 578T breast
K-562 leukemia = system: K-562 leukemia
NCI-H460 lung = system: NCI-H460 lung
KM12 colon = system: KM12 colon
SF-268 CNS = system: SF-268 CNS
UACC-257 melanoma = system: UACC-257 melanoma
HOP-92 NSCLC = system: HOP-92 NSCLC
BT-549 breast = system: BT-549 breast
SF-295 CNS = system: SF-295 CNS
NCI-H226 lung = system: NCI-H226 lung
SK-OV-3 ovarian = system: SK-OV-3 ovarian
HCC-2998 colon = system: HCC-2998 colon
NCI-H23 lung = system: NCI-H23 lung
SK-MEL-28 melanoma = system: SK-MEL-28 melanoma
UO-31 renal = system: UO-31 renal
COLO 205 colon = system: COLO 205 colon
ACHN renal = system: ACHN renal
CAKI-1 renal = system: CAKI-1 renal
HCT-116 colon = system: HCT-116 colon
SW-620 colon = system: SW-620 colon
DU-145 prostate = system: DU-145 prostate
SR leukemia = system: SR leukemia
OVCAR-4 ovarian = system: OVCAR-4 ovarian
U251 CNS = system: U251 CNS

COC(=O)/C=C1/SC(=Nc2ccc(F)cc2)N(CCc2c[nH]c3ccc(O)cc23)C1=O
38.4 µM: TGI (BT-549 breast)
8.98 µM: TGI (RXF 393 renal)
41.3 µM: TGI (SF-295 CNS)
58.7 µM: TGI (TK-10 renal)
77.3 µM: TGI (SK-MEL-5 melanoma)
67.5 µM: TGI (OVCAR-8 ovarian)
19.7 µM: TGI (HOP-62 NSCLC)
47.4 µM: TGI (NCI-H226 lung)
22.7 µM: TGI (OVCAR-4 ovarian)
40.1 µM: TGI (786-0 renal)
inactive: GI50 (MDA-MB-231 breast) 14.8 µM | GI50 (TK-10 renal) 14 µM | GI50 (SNB-75 CNS) 4.01 µM | GI50 (SN12C renal) 8.44 µM | GI50 (RXF 393 renal) 2.23 µM | GI50 (OVCAR-5 ovarian) > 100 µM | GI50 (NCI/ADR-RES ovarian) 4.69 µM | GI50 (UACC-62 melanoma) 4.75 µM | GI50 (SNB-19 CNS) 9.28 µM | GI50 (786-0 renal) 6.85 µM | GI50 (MDA-MB-435) 3.79 µM | GI50 (NCI-H522 lung) 3.85 µM | GI50 (RPMI-8226 leukemia) 3.01 µM | GI50 (OVCAR-3 ovarian) 4.41 µM | GI50 (SF-539 CNS) 6.42 µM | GI50 (EKVX NSCLC) 20.7 µM | GI50 (A549 NSCLC) 41.2 µM | GI50 (MALME-3M melanoma) 12.9 µM | GI50 (OVCAR-8 ovarian) 4.45 µM | GI50 (IGROV1 ovarian) 5.79 µM | GI50 (PC-3 prostate) 7.05 µM | GI50 (SK-MEL-2 melanoma) 2.76 µM | GI50 (HOP-62 NSCLC) 3.83 µM | GI50 (T-47D breast) 4.4 µM | GI50 (SK-MEL-5 melanoma) 11.1 µM | GI50 (HS 578T breast) 4.28 µM | GI50 (K-562 leukemia) > 100 µM | GI50 (NCI-H460 lung) 4.71 µM | GI50 (KM12 colon) 5.56 µM | GI50 (SF-268 CNS) 5.96 µM | GI50 (UACC-257 melanoma) 9.82 µM | GI50 (HOP-92 NSCLC) 6.21 µM | GI50 (BT-549 breast) 3.75 µM | GI50 (SF-295 CNS) 12 µM | GI50 (NCI-H226 lung) 4.17 µM | GI50 (SK-OV-3 ovarian) 24.4 µM | GI50 (HCC-2998 colon) > 100 µM | GI50 (NCI-H23 lung) 7.49 µM | GI50 (SK-MEL-28 melanoma) 7.34 µM | GI50 (UO-31 renal) 7.07 µM | GI50 (COLO 205 colon) > 100 µM | GI50 (ACHN renal) 7.29 µM | GI50 (CAKI-1 renal) 24.9 µM | GI50 (HCT-116 colon) 4.89 µM | GI50 (SW-620 colon) > 100 µM | GI50 (DU-145 prostate) 5.92 µM | GI50 (SR leukemia) 2.08 µM | GI50 (OVCAR-4 ovarian) 3.37 µM | GI50 (U251 CNS) 4.32 µM
29.6 µM: TGI (HOP-92 NSCLC)
27.3 µM: TGI (U251 CNS)
51.9 µM: TGI (SNB-19 CNS)
18.3 µM: TGI (SNB-75 CNS)
42.7 µM: TGI (SF-268 CNS)
35.7 µM: TGI (HS 578T breast)
26.1 µM: TGI (SF-539 CNS)
27.7 µM: TGI (UACC-62 melanoma)
9.06 µM: TGI (SK-MEL-2 melanoma)
> 100 µM: TGI (MDA-MB-231 breast) | TGI (SN12C renal) | TGI (OVCAR-5 ovarian) | TGI (NCI/ADR-RES ovarian) | TGI (MDA-MB-435) | TGI (NCI-H522 lung) | TGI (RPMI-8226 leukemia) | TGI (OVCAR-3 ovarian) | TGI (EKVX NSCLC) | TGI (A549 NSCLC) | TGI (MALME-3M melanoma) | TGI (IGROV1 ovarian) | TGI (PC-3 prostate) | TGI (T-47D breast) | TGI (K-562 leukemia) | TGI (NCI-H460 lung) | TGI (KM12 colon) | TGI (UACC-257 melanoma) | TGI (SK-OV-3 ovarian) | TGI (HCC-2998 colon) | TGI (NCI-H23 lung) | TGI (SK-MEL-28 melanoma) | TGI (UO-31 renal) | TGI (COLO 205 colon) | TGI (ACHN renal) | TGI (CAKI-1 renal) | TGI (HCT-116 colon) | TGI (SW-620 colon) | TGI (DU-145 prostate) | TGI (SR leukemia)
